# From patent US11584714B2 (priority 2018, dated 2023)
# Where a name gives a salt, the structure may show the parent alone. Read-outs that look alike come from different tables or passages of the source.
# Columns and labels:
# Type in all cases: biochemical
# human α-thrombin = human α-thrombin (Homo sapiens (Human), UniProt P00734); test: Enzymatic assay for thrombin (Boc-VPR-AMC substrate)
# mMASP-2 = mMASP-2 (Mus musculus (Mouse), UniProt Q91WP0); test: Enzymatic inhibition of mMASP-2; settings: read-out: mMASP-2 Ki
# MASP-2 (CCP1-CCP2-SP) = MASP-2 (CCP1-CCP2-SP) (Homo sapiens (Human), UniProt O00187); test: biochemical
# [1] = selectivity for MASP-2 inhibition versus thrombin
# MASP-2 (CCP1-CCP2-SP), sequence (O00187 445-686): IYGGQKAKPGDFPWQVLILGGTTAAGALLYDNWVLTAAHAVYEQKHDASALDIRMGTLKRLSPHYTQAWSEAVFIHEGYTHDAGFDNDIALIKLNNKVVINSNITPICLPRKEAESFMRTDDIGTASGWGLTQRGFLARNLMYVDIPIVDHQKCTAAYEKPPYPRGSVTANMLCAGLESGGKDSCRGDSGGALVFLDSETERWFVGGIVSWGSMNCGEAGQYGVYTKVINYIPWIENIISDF
# mMASP-2, sequence (Q91WP0 20-685): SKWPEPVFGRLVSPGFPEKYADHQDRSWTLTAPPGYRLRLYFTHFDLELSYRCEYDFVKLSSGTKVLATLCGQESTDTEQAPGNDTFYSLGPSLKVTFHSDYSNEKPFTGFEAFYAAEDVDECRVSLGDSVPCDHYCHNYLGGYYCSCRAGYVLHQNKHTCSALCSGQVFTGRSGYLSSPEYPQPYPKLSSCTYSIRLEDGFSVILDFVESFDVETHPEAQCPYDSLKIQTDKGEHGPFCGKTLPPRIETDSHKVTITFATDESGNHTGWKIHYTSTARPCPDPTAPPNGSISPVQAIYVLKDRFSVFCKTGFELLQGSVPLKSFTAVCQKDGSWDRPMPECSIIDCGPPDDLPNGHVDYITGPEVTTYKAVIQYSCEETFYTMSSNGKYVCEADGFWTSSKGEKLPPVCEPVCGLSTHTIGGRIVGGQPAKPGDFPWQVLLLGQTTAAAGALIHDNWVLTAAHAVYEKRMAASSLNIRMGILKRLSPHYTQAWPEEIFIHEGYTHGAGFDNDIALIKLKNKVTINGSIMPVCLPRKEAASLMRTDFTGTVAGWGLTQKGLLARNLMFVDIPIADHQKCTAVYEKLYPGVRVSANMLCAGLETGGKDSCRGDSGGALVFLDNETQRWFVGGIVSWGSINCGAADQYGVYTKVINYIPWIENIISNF
SMILES,Ki (human α-thrombin; Thrombin Ki (μM)),Ki (mMASP-2),Ki (MASP-2 (CCP1-CCP2-SP); read-out: MASP-2 Ki),MASP-2 vs. thrombin selectivity (MASP-2 (CCP1-CCP2-SP); [1]),Ki (human α-thrombin; read-out: Thrombin Ki),Ki (MASP-2 (CCP1-CCP2-SP)),MASP-2 vs. thrombin selectivity (MASP-2 (CCP1-CCP2-SP); MASP-2 inhibition versus thrombin)
"Cc1nc(N)ccc1CNC(=O)[C@H](C)NC(=O)[C@H]1C[C@H](Cc2ccc(C)c3ccccc23)CN1 [compound 1479, (2R,4S)—N—((S)-1-(((6-Amino-2-methylpyridin-3-yl)methyl)amino)-1-oxopropan-2-yl)-4-((4-methylnaphthalen-1-yl)methyl)pyrrolidine-2-carboxamide Dihydrochloride]",10 to 25 µM,< 0.5 µM,< 0.5 µM,**** (≥100-fold),–,–,–
"C[C@H](NC(=O)[C@H](N)C/C=C/c1ccccc1)C(=O)NCc1ccc(N)nc1 [compound 1261, (R, E)-2-Amino-N—((S)-1-(((6-aminopyridin-3-yl)methyl)amino)-1-oxopropan-2-yl)-5-phenylpent-4-enamide]",–,10 to 25 µM,–,* (≥1.0 to <5.0-fold),> 25 µM,10 to 25 µM,–
"Cc1nc(N)ccc1CNC(=O)[C@H](C)NC(=O)[C@H]1CN(c2cccc3ccccc23)CCN1 [compound 1309, (R)—N—((S)-1-(((6-Amino-2-methylpyridin-3-yl)methyl)amino)-1-oxopropan-2-yl)-4-(naphthalen-1-yl)piperazine-2-carboxamide Dihydrochloride]",–,< 0.5 µM,< 0.5 µM,**** (≥100-fold),> 25 µM,–,–
"C[C@H](NC(=O)c1nc(-c2ccccc2)cs1)C(=O)NCc1ccc(C(=N)N)cc1 [compound 1286, (S)—N-(1-((4-Carbamimidoylbenzyl)amino)-1-oxopropan-2-yl)-4-phenylthiazole-2-carboxamide]",0.5 to 2.5 µM,< 0.5 µM,–,−− (<1.0-fold),–,2.5 to 10 µM,–
"C[C@H](NC(=O)[C@H]1C[C@@H](c2cccc(C#N)c2)CN1)C(=O)NCc1ccc(C(=N)N)cc1 [compound 1278, (2R,4S)—N—((S)-1-((4-Carbamimidoylbenzyl)amino)-1-oxopropan-2-yl)-4-(3-cyanophenyl)pyrrolidine-2-carboxamide]",2.5 to 10 µM,< 0.5 µM,< 0.5 µM,*** (≥25 to <100-fold),–,–,–
"C[C@H](NC(=O)[C@H]1C[C@H](c2ccccc2)CN1)C(=O)NCc1ccc2c(N)noc2c1 [compound 1390, (2R,4R)—N—((S)-1-(((3-Aminobenzo[d]isoxazol-6-yl)methyl)amino)-1-oxopropan-2-yl)-4-phenylpyrrolidine-2-carboxamide Di-trifluoroacetate salt]",–,> 25 µM,–,–,> 25 µM,2.5 to 10 µM,–
"Cc1nc(N)ccc1CNC(=O)[C@H](C)NC(=O)[C@H]1C[C@H](Cc2cc3ccccc3s2)CN1 [compound 1458, (2R,4R)—N—((S)-1-(((6-Amino-2-methylpyridin-3-yl)methyl)amino)-1-oxopropan-2-yl)-4-(benzo[b]thiophen-2-ylmethyl)pyrrolidine-2-carboxamide Di-trifluoroacetate salt]",–,< 0.5 µM,< 0.5 µM,**** (≥100-fold),> 25 µM,–,–
"C[C@H](NC(=O)[C@H](N)CCc1ccccc1)C(=O)NCc1cc(C#N)ccc1O [compound 1314, (R)-2-Amino-N—((S)-1-((5-cyano-2-hydroxybenzyl)amino)-1-oxopropan-2-yl)-4-phenylbutanamide Trifluoroacetate salt]",–,> 25 µM,–,* (≥1.0 to <5.0-fold),> 25 µM,10 to 25 µM,–
"Cc1nc(N)ccc1CNC(=O)[C@H](C)NC(=O)[C@H]1C[C@H](Cc2cc(-c3ccccc3)cs2)CN1 [compound 1399, (2R,4R)—N—((S)-1-(((6-Amino-2-methylpyridin-3-yl)methyl)amino)-1-oxopropan-2-yl)-4-((4-phenylthiophen-2-yl)methyl)pyrrolidine-2-carboxamide Dihydrochloride]",10 to 25 µM,< 0.5 µM,< 0.5 µM,**** (≥100-fold),–,–,–
"C[C@H](NC(=O)[C@H](N)CCc1ccccc1)C(=O)NCc1ccnc(N)c1 [compound 1296, (R)-2-Amino-N—((S)-1-(((2-aminopyridin-4-yl)methyl)amino)-1-oxopropan-2-yl)-4-phenylbutanamide Dihydrochloride]",–,> 25 µM,–,** (≥5.0 to <25-fold),> 25 µM,2.5 to 10 µM,–
"C[C@H](NC(=O)[C@H]1C[C@H](c2ccccc2)CN1)C(=O)NCc1ccc2c(N)n[nH]c2c1 [compound 1425, (2R,4R)—N—((S)-1-(((3-Amino-1H-indazol-6-yl)methyl)amino)-1-oxopropan-2-yl)-4-phenylpyrrolidine-2-carboxamide Trifluoroacetate salt]",–,0.5 to 2.5 µM,–,–,> 25 µM,2.5 to 10 µM,–
"Cc1cc(Cl)cc(CNC(=O)[C@H](C)NC(=O)[C@H]2C[C@H](Cc3ccccc3-c3ccccc3)CN2)c1O [compound 1401, (2R,4S)-4-([1,1′-Biphenyl]-2-ylmethyl)-N-((S)-1-((5-chloro-2-hydroxy-3-methylbenzyl)amino)-1-oxopropan-2-yl)pyrrolidine-2-carboxamide Hydrochloride]",–,0.5 to 2.5 µM,< 0.5 µM,–,> 25 µM,–,–
"CC[C@H]1N[C@@H](C(=O)N[C@@H](C)C(=O)NCc2ccc(N)nc2C)C[C@@H]1Cc1ccccc1 [compound 1413, (2R,4S,5R)—N—((S)-1-(((6-Amino-2-methylpyridin-3-yl)methyl)amino)-1-oxopropan-2-yl)-4-benzyl-5-ethylpyrrolidine-2-carboxamide Di-trifluoroacetate salt]",–,2.5 to 10 µM,–,*** (≥25 to <100-fold),> 25 µM,0.5 to 2.5 µM,–
"C[C@H](NC(=O)[C@H]1C[C@H](c2ccccc2)CN1)C(=O)NCc1cnc2sccc2c1 [compound 1471, (2R,4R)—N—((S)-1-oxo-1-((Thieno[2,3-b]pyridin-5-ylmethyl)amino)propan-2-yl)-4-phenylpyrrolidine-2-carboxamide Trifluoroacetate salt]",–,2.5 to 10 µM,–,–,> 25 µM,2.5 to 10 µM,–
"Cc1cc(Br)cc(CNC(=O)[C@H](C)NC(=O)[C@H]2C[C@H](Cc3ccccc3)CN2)c1-n1cnnn1 [compound 1436, (2R,4S)-4-Benzyl-N-((S)-1-((5-bromo-3-methyl-2-(1H-tetrazol-1-yl)benzyl)amino)-1-oxopropan-2-yl)pyrrolidine-2-carboxamide Trifluoroacetate]",10 to 25 µM,> 25 µM,–,** (≥5.0 to <25-fold),–,0.5 to 2.5 µM,–
"Cc1nc(N)ccc1CNC(=O)[C@H](C)NC(=O)[C@H]1C[C@H](Cc2cc(C(F)(F)F)cc(C(F)(F)F)c2)CN1 [compound 1424, (2R,4S)—N—((S)-1-(((6-Amino-2-methylpyridin-3-yl)methyl)amino)-1-oxopropan-2-yl)-4-(3,5-bis(trifluoromethyl)benzyl)pyrrolidine-2-carboxamide Di-trifluoroacetate salt]",–,0.5 to 2.5 µM,–,–,< 0.5 µM,0.5 to 2.5 µM,–
"Cc1nc(N)ccc1CNC(=O)[C@H](C)NC(=O)[C@H]1C[C@H](Cc2ccc(Cc3ccccc3)cc2)CN1 [compound 1427, (2R,4S)—N—((S)-1-(((6-Amino-2-methylpyridin-3-yl)methyl)amino)-1-oxopropan-2-yl)-4-(4-benzylbenzyl)pyrrolidine-2-carboxamide di-trifluoroacetate salt]",–,< 0.5 µM,< 0.5 µM,**** (≥100-fold),> 25 µM,–,–
C[C@H](NC(=O)[C@H](CCc1ccccc1)NCc1c[nH]c2ccccc12)C(=O)NCc1ccc(C(=N)N)cc1 [compound 1223],–,< 0.5 µM,< 0.5 µM,–,< 0.5 µM,–,*** (25 to 100-fold)
"C[C@H](NC(=O)[C@H](N)CCc1ccccc1)C(=O)NCc1cc(Cl)ccc1CO [compound 1287, (R)-2-amino-N—((S)-1-((5-Chloro-2-(hydroxymethyl)benzyl)amino)-1-oxopropan-2-yl)-4-phenylbutanamide]",–,> 25 µM,–,–,> 25 µM,10 to 25 µM,–
"C[C@H](NC(=O)[C@H]1C[C@H](Cc2ccccc2)CN1)C(=O)NCc1cc(Cl)cc(Cl)c1O [compound 1448, (2R,4S)-4-benzyl-N-((S)-1-((3,5-dichloro-2-hydroxybenzyl)amino)-1-oxopropan-2-yl)pyrrolidine-2-carboxamide, hydrochloride]",–,2.5 to 10 µM,< 0.5 µM,**** (≥100-fold),> 25 µM,–,–
"C[C@H](NC(=O)[C@H]1C[C@H](c2ccccc2)CN1)C(=O)NCc1cc(Cl)cc(C#N)c1 [compound 1386, (2R,4R)—N—((S)-1-((3-Chloro-5-cyanobenzyl)amino)-1-oxopropan-2-yl)-4-phenylpyrrolidine-2-carboxamide Trifluoroacetate salt]",–,> 25 µM,–,–,> 25 µM,10 to 25 µM,–
"C[C@H](NC(=O)c1cc(-c2ccccc2)n[nH]1)C(=O)NCc1ccc(C(=N)N)cc1 [compound 1295, (S)—N-(1-((4-Carbamimidoylbenzyl)amino)-1-oxopropan-2-yl)-3-phenyl-1H-pyrazole-5-carboxamide]",2.5 to 10 µM,< 0.5 µM,< 0.5 µM,*** (≥25 to <100-fold),–,–,–
"Cc1nc(N)ccc1CNC(=O)[C@H](C)NC(=O)[C@H](N)CCc1ccccc1 [compound 1245, (R)-2-Amino-N—((S)-1-(((6-amino-2-methylpyridin-3-yl)methyl)amino)-1-oxopropan-2-yl)-4-phenylbutanamide]",10 to 25 µM,10 to 25 µM,< 0.5 µM,**** (≥100-fold),–,–,–
"N=C(N)c1ccc(CNC(=O)[C@H](Cc2cnc[nH]2)NC(=O)[C@H](N)CCc2ccccc2)cc1 [compound 1332, (R)-2-Amino-N—((S)-1-((4-carbamimidoylbenzyl)amino)-3-(1H-imidazol-5-yl)-1-oxopropan-2-yl)-4-phenylbutanamide Di-trifluoroacetate]",–,2.5 to 10 µM,–,–,> 25 µM,10 to 25 µM,–
